Consider two molecules from BindingDB's records for PubMed 39326269 (Second Military Medical University).

Where a SMILES comes first, the peptide text is derived from it. Bridges are numbered along the chain shown (N, C = ends). [ ]: non-standard residue; d: D form. S5 = C=CCCC[C@](C)(N)C(=O)O

Assay [1] deals with GTPase KRas (Homo sapiens, UniProt P01116). Nature of the assay: Binding affinity to KRas G12C mutant (unknown origin) assessed as dissociation constant by biolayer interferometry assay.
GTPase KRas, sequence (P01116 whole entry G12C): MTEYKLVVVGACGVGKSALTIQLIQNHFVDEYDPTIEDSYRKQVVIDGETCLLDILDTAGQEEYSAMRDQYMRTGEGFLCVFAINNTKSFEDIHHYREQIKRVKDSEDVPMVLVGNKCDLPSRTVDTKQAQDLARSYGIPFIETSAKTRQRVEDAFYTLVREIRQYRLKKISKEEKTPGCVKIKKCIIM
The nature of assay [2]: Inhibition of pERK in human ASPC1 cells measured after 1 hr.
Assay [3] in a line: Inhibition of pERK in human ASPC1 cells measured after 18 hr.

`CC[C@H](C)[C@H](NC(=O)CNC(=O)[C@H](Cc1ccccc1)NC(C)=O)C(=O)N[C@@]1(C)CCCC=CCCC[C@@](C)(C(=O)N[C@@H](CC(C)C)C(=O)N[C@@H](CCCCN)C(=O)N[C@H](C(N)=O)[C@@H](C)O)NC(=O)[C@H](CC(N)=O)NC(=O)[C@H]([C@@H](C)O)NC(=O)[C@H](CC(C)C)NC1=O` (Ac-FGI[S5]LTN[S5]LKT-NH2; staple 4-8): the Kd (as a rule, the concentration at which binding is half-saturated) in assay [1] is 7670 nM. With `CC[C@H](C)[C@@H]1NC(=O)[C@H](Cc2ccc(O)cc2)NC(=O)[C@H](CC(C)C)NC(=O)[C@@H]2CCCN2C(=O)[C@H](NC(=O)[C@@H](CCCNC(=N)N)NC(=O)[C@@H](CCCNC(=N)N)NC(=O)[C@@H](CCCNC(=N)N)NC(=O)[C@@H](CCCNC(=N)N)NC(=O)[C@H](CCCCN=[N+]=[N-])NC(C)=O)CSSC[C@@H](C(=O)N[C@H](CCCNC(=N)N)C(=O)N[C@H](CCCNC(=N)N)C(=O)N[C@H](CCCNC(=N)N)C(=O)N[C@H](CCCNC(=N)N)C(N)=O)NC(=O)[C@H](C(C)C)NC(=O)[C@@H]2CCCN2C(=O)[C@H](CC(=O)O)NC(=O)[C@H](Cc2ccc(O)cc2)NC(=O)[C@](C)(CO)NC1=O`, the EC50 – broadly, the concentration needed to bring the measured effect to its halfway point – in assay [2] stood at 1200 nM; in assay [3], 1500 nM.
